Source: patent publication US7915245B2, “Methods and compositions of trail-death receptor agonists/activators” (The Board of Regents of the University of Texas System, priority 2007, dated 2011)

System: pancreatic cancer AsPC-1 cells xenografted
Experiment: AsPC-1 xenograft tumor growth
Format: in vivo, Balb c nude mice
Settings: 20, 40 mg/kg iv, 5 days per week
Experimental: FIG. 27. […] AsPC-1 cells (2×10^6 cells as a 50% suspension in Matrigel, Becton Dickinson, Bedford, Mass., in a final volume of 0.1 ml) were injected subcutaneously in the right flank of Balb c nude mice. After tumor formation (about 100 mm^3), nude mice (10 per group) were treated (iv) with vehicle control (0.1 ml normal saline), DRA11 (20 mg/kg, 0.1 ml volume), and DRA11 (40 mg/kg, 0.1 ml volume) everyday 5 days per week throughout the duration of the experiment. Tumor volume was calculated using the equation: (volume=length×width×depth×0.5236 mm^3).
FIG. 31. […] MDA-MB-468 cells (2×10^6 cells, in a final volume of 0.1 ml PBS) were injected subcutaneously in the right flank of Balb c nude mice. […] Tumor volume was calculated using the equation: (volume=length×width×depth×0.5236 mm^3). […]
AsPC-1 cells (2×10^6 cells as a 50% suspension in Matrigel, Becton Dickinson, Bedford, Mass., in a final volume of 0.1 ml) were injected subcutaneously in the right flank of Balb c nude mice. […] Tumor volume was calculated using the equation: (volume=length×width×depth×0.5236 mm^3). […]
MDA-MB-468 cells (2×10^6 cells, in a final volume of 0.1 ml PBS) were injected subcutaneously in the right flank of Balb c nude mice. […] Tumor volume was calculated using the equation: (volume=length×width×depth×0.5236 mm^3). […]

Q: How did the “growth of xenografted AsPC-1 tumors (tumor volume)” value turn out when `CCOc1cc(Br)c(Br)c(/C=N/c2cccc(C(=O)O)c2C)c1O` [DRA9S] was run?
A: inhibits growth
